Patent US5602106A, “16-membered macrolide derivatives” (priority 1993, dated 1997)

Assays:
[1] = system: test strains; experiment: Antimicrobial activity in vitro, test strains overall; format: cell-based; conditions: for antimicrobial activities in vitro compared with miokamycin: vs miokamycin (MOM)
Method: (§1) The effect of the first aspect of the present invention resides in the creation of a novel and useful 16-membered macrolide derivative. Antimicrobial activities of the compounds of the present invention were determined by measuring minimum inhibitory concentration (MIC). Minimum inhibitory concentration was determined by the agar plate dilution method in the following manner.
(§2) Test strains were subjected to seed culture using Sensitivity test broth (STB, Nissui Pharmaceutical) except that the strains belonging to the genus Streptococcus, Branhamella and Haemophilus were cultured on blood agar plate. A 5 μl portion of cell suspension of the test strains having about 10^6 CFU/ml was inoculated into Sensitivity disk agar (SDA, Nissui Pharmaceutical) supplemented with 5% horse blood and incubated at 37° C. for 20 hours. Then, MIC was measured. […] Antimicrobial activities in vitro of the compounds (1) and (2) are shown in Table 1, and those of the compounds (3) and (4) in Table 3.

[2] = system: Branhamella catarrhalis; experiment: Antimicrobial activity in vitro; format: cell-based; conditions: vs compound (5)
Method: as §1, §2

[3] = system: Streptococcus pneumoniae DP-1 Type 1; experiment: Infection-treating test in mice; format: in vivo
Excerpt: The compounds represented by the formula (I) exert excellent in vivo effects in infection-treating tests in mice in comparison with the case of currently known 16-membered macrolide antimicrobial agents. […] Such an excellent effect is related not to the ester bonding of the tertiary hydroxyl group at the 3"-position with an acyl group but directly to its ether bonding with a methyl group. […] In this connection, it has been reported that an isovaleryl group linked to a hydroxyl group at the 4"-position cannot easily be cleaved in rat blood plasma when compared with a propionyl group [Yakugaku Zasshi, 102(8), 781 (1982)].

SMILES	antimicrobial activities in vitro compared with miokamycin [1]	antimicrobial activity against Branhamella catarrhalis compared with compound (5) [2]	antimicrobial activities compared with starting materials (1), (2) and (33) ([1]; 9-O-acylated vs free 9-hydroxyl)	amount giving a coordinate infection-treating effect relative to miokamycin ([3]; fraction of miokamycin amount)	amount giving a coordinate infection-treating effect relative to rokitamycin ([3]; fraction of rokitamycin amount)
CO[C@@H]1[C@@H](O[C@@H]2O[C@H](C)[C@@H](O[C@H]3C[C@@](C)(OC)[C@@H](OC(=O)CC(C)C)[C@H](C)O3)[C@H](N(C)C)[C@H]2O)[C@@H](CC=O)C[C@@H](C)[C@@H](OC(C)=O)/C=C/C=C/C[C@@H](C)OC(=O)C[C@H]1OC(C)=O [(11), 9-O-acetyl-3"-O-methyljosamycin]	comparable to or higher	slightly superior to that of the compound (5)	–	–	–
CCC(=O)O[C@@H]1CC(=O)O[C@H](C)C/C=C/C=C/[C@H](OC(C)=O)[C@H](C)C[C@H](CC=O)[C@H](O[C@@H]2O[C@H](C)[C@@H](O[C@H]3C[C@@](C)(OC)[C@@H](OC(=O)CC)[C@H](C)O3)[C@H](N(C)C)[C@H]2O)[C@H]1OC [(5), 9-O-acetyl-3"-O-methylmidecamycin A1]	comparable to or higher	–	strong antimicrobial activities by themselves though slightly lower than those of their starting materials	1/4	1/8
